# Reference: patent US8114875B2, “Substituted N-heterocyclic compounds and their use as dopamine D3 receptor ligands” (Abbott GmbH & Co. KG, priority 2004, dated 2012)
# How the values were obtained:
# [1] = target: T1, human dopamine D3 receptors (Homo sapiens, UniProt P35462); experiment: Dopamine D3 receptor binding, displacement of [125I]-iodosulpride; conditions: membranes from HEK-293 cells with stably expressed human D3 receptors; 0.1 nM [125I]-iodosulpride; 25° C., 60 minutes
# T1 construct: expressed in transfected cells; host or cells: HEK-293
# T1 sequence (P35462 whole entry): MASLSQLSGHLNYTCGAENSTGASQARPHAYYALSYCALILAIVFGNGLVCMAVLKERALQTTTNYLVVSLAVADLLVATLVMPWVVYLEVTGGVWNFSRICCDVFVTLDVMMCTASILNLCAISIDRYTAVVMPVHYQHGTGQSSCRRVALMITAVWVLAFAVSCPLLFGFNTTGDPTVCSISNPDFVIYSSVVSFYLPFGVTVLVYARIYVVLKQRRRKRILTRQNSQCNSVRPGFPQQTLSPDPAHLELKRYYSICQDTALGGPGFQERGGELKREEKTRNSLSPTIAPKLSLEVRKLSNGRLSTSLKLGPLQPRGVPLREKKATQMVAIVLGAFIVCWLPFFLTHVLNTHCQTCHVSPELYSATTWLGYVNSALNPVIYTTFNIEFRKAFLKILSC
# Description: (§1) The substance to be tested was dissolved either in methanol/Chremophor® (BASFAG) or in dimethyl sulfoxide and then diluted with water to the desired concentration.
# The mixture (0.250 ml) was composed of membranes from ˜106 HEK-293 cells with stably expressed human dopamine D3 receptors, 0.1 nM [^125I]-iodosulpride and incubation buffer (total binding) or with additional test substance (inhibition plot) or 1 μM spiperone (nonspecific binding). Triplicate mixtures were carried out.
# The incubation buffer contained 50 mM Tris, 120 mM NaCl, 5 mM KCl, 2 mM CaCl2, 2 mM MgCl2 and 0.1% bovine serum albumin, 10 μM quinolone, 0.1% ascorbic acid (prepared fresh each day). The buffer was adjusted to pH 7.4 with HCl.
# (§2) Measurement and Evaluation:
# (§3) After incubation at 25° C. for 60 minutes, the mixtures were filtered under vacuum through Whatman GF/B glass fiber filters using a cell harvester. The filters were transferred by a filter transfer system into scintillation vials. After addition of 4 ml of Ultima Gold® (Packard), the samples were shaken for one hour and then the radioactivity was counted in a beta counter (Packard, Tricarb 2000 or 2200CA). The cp values were converted into dpm by means of a standard quench series with the aid of the instrument's own program.
# (§4) Evaluation of the inhibition plots took place by iterative nonlinear regression analysis using the Statistical Analysis System (SAS) similar to the “LIGAND” program described by Munson and Rodbard.
# [2] = target: T2, human dopamine D2L receptors (long isoform) (Homo sapiens, UniProt P14416); experiment: Dopamine D2L receptor binding, displacement of [125I]-iodospiperone; conditions: ratio of Ki values from D3 and D2L binding assays, HEK-293 membranes
# T2 construct: expressed in transfected cells; host or cells: HEK-293
# T2 sequence (P14416 whole entry, canonical isoform): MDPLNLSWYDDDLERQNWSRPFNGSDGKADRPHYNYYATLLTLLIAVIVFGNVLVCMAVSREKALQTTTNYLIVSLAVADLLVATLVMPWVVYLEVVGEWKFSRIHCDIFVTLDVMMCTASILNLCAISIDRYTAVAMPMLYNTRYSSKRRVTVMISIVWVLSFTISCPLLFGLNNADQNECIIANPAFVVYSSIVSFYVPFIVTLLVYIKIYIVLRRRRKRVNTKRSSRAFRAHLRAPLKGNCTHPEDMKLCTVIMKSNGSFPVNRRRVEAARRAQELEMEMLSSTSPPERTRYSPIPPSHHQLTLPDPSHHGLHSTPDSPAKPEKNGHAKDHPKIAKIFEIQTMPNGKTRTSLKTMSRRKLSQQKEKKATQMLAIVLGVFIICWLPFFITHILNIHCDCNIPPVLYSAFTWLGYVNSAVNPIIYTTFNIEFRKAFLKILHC
# Description: as §1
# The mixture (1 ml) was composed of membranes from ˜10^6 HEK-293 cells with stably expressed human dopamine D2L receptors (long isoform) and 0.01 nM [^1251]-iodospiperone and incubation buffer (total binding) or with additional test substance (inhibition plot) or 1 μM haloperidol (nonspecific binding). Triplicate mixtures were carried out.
# The incubation buffer contained 50 mM Tris, 120 mM NaCl, 5 mM KCl, 2 mM CaCl2, 2 mM MgCl2 and 0.1% bovine serum albumin. The buffer was adjusted to pH 7.4 with HCl.
# as §2, §3, §4
Ki [1],Selectivity D3 vs. D2L (footnote: Ki(D2L)/Ki(D3)) [2],SMILES
18.1 nM,51,"Cc1cn(CCCCN2CCN(Cc3ccc(Cl)c(Cl)c3)CC2)c(=O)[nH]c1=O [Example 10, 1-{4-[4-(3,4-Dichlorobenzyl)piperazin-1-yl]butyl}-5-methyl-1H-pyrimidine-2,4-dione]"
10.6 nM,99,"O=c1[nH]c(=O)n(CCCCN2CCN(Cc3ccc(Cl)cc3Cl)CC2)cc1F [Example 5, 1-{4-[4-(2,4-Dichlorobenzyl)piperazin-1-yl]butyl}-5-fluoro-1H-pyrimidine-2,4-dione]"
22.3 nM,48,"Cc1cn(CCCCN2CCN(Cc3ccc(F)cc3Cl)CC2)c(=O)[nH]c1=O [Example 11, 1-{4-[4-(2-Chloro-4-fluorobenzyl)piperazin-1-yl]butyl}-5-methyl-1H-pyrimidine-2,4-dione]"
4.6 nM,94,"O=c1ccn(CCCCN2CCN(Cc3ccc(Cl)cc3Cl)CC2)c(=O)[nH]1 [Example 2, 1-{4-[4-(2,4-Dichlorobenzyl)piperazin-1-yl]butyl}-1H-pyrimidine-2,4-dione]"
8.9 nM,98,"Cc1cn(CCCCN2CCN(Cc3ccc(Cl)cc3Cl)CC2)c(=O)[nH]c1=O [Example 1, 1-{4-[4-(2,4-Dichlorobenzyl)piperazin-1-yl]butyl}-5-methyl-1H-pyrimidine-2,4-dione]"
17 nM,31,"Cc1ccn(CCCCN2CCN(Cc3ccc(Cl)cc3Cl)CC2)c(=O)n1 [Example 4, 1-{4-[4-(2,4-Dichlorobenzyl)piperazin-1-yl]butyl}-4-methyl-1H-pyrimidin-2-one]"
3.16 nM,204,"O=c1nc(-c2ccccc2)ccn1CCCCN1CCN(Cc2ccc(Cl)cc2Cl)CC1 [Example 3, 1-{4-[4-(2,4-Dichlorobenzyl)piperazin-1-yl]butyl}-4-phenyl-1H-pyrimidin-2-one]"
